What was measured:
Type in all cases: cell-based
[1] = test system: Ba/F3 cells expressing del19/T790M (EGFR-DT); assay: Growth inhibition (GI50) of Ba/F3 cells expressing del19/T790M (EGFR-DT), Celltiter glo; details: Mus musculus, BaF3, 72 h
Description: (§1) In this experimental example, a determination was made as to whether the compounds prepared in Examples 1-283 have the ability to inhibit the growth of Ba/F3 cells expressing EGFR-wt, del19/T790M/C797S (EGFR-DTC), L858R/T790M/C797S (EGFR-LTC), del19/T790M (EGFR-DT), and L858R/T790M (EGFR-LT) variants.
(§2) The parental Ba/F3 cell line is a population of cells that are not introduced with EGFR variants. Specifically, 100 μl of a cell line expressing each variant was plated in a 96-well plate at a density of 100,000 cells/ml. 10-point, 4-fold serial dilutions of each compound were prepared, starting at 2 mM. After 4 h, 0.5 μl of the compound (0.5% DMSO) was added, followed by incubation at 37° C. and 5% CO2 for 72 h. After incubation, the number of viable cells was measured using a Celltiter glo assay kit (Promega) and the GI50 of the compound was determined. The term “GI50” refers to the molar concentration (μM) of the compound required for 50% growth inhibition of cells.

[2] = test system: parental Ba/F3 cell line; assay: Growth inhibition (GI50) of the parental Ba/F3 cell line (not introduced with EGFR variants), Celltiter glo; details: Mus musculus, BaF3, 72 h, parental Ba/F3 cells
How it was run: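 Viable cell count by CellTiter-Glo after 72 h at 37 °C gave GI50 values (μM, 50% growth inhibition). Cells lacking EGFR variants were seeded at 100,000 cells/ml and dosed 4 h later with 4-fold serial dilutions from a 2 mM stock, 0.5% DMSO.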

[3] = test system: Ba/F3 cells expressing EGFR-wt; assay: Growth inhibition (GI50) of Ba/F3 cells expressing EGFR-wt, Celltiter glo; details: Mus musculus, BaF3, 72 h
How it was run: (§3)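 Steps: plate engineered Ba/F3 cells (100,000 cells/ml); wait 4 h; add compound as a 4-fold, 10-point dilution series made from 2 mM stock, DMSO 0.5%; incubate 72 h at 37 °C under 5% CO2; measure ATP-based viability with CellTiter-Glo; calculate GI50.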

[4] = test system: Ba/F3 cells expressing del19/T790M/C797S (EGFR-DTC); assay: Growth inhibition (GI50) of Ba/F3 cells expressing del19/T790M/C797S (EGFR-DTC), Celltiter glo; details: Mus musculus, BaF3, 72 h
How it was run: as §3

[5] = test system: Ba/F3 cells expressing L858R/T790M/C797S (EGFR-LTC); assay: Growth inhibition (GI50) of Ba/F3 cells expressing L858R/T790M/C797S (EGFR-LTC), Celltiter glo; details: Mus musculus, BaF3, 72 h
How it was run: as §3

[6] = test system: Ba/F3 cells expressing L858R/T790M (EGFR-LT); assay: Growth inhibition (GI50) of Ba/F3 cells expressing L858R/T790M (EGFR-LT), Celltiter glo; details: Mus musculus, BaF3, 72 h
Description: as §1, §2

Structure (SMILES)	GI50 [1]	GI50 [2]	GI50 [3]	GI50 [4]	GI50 [5]	GI50 [6]
COc1cc(N2CCC(N3CCN(C)CC3)CC2)c(C)cc1Nc1ncc(Cl)c(Nc2cc(Cl)ccc2NS(C)(=O)=O)n1 [Example 80, N-(4-chloro-2-((5-chloro-2-((2-methoxy-5-methyl-4-(4-(4-methylpiperazin-1-yl)piperidin-1-yl)phenyl)amino)pyrimidin-4-yl)amino)phenyl)methanesulfonamide]	1 to 25 nM	2000 to 10000 nM	100 to 500 nM	1 to 25 nM	1 to 25 nM	1 to 25 nM
COc1cc(N2CCC(N3CCN(C)CC3)CC2)c(C)cc1Nc1ncc(Br)c(Nc2cc(Cl)ccc2NS(C)(=O)=O)n1 [Example 85]	1 to 25 nM	500 to 2000 nM	100 to 500 nM	1 to 25 nM	1 to 25 nM	1 to 25 nM
COc1nc(N2CCC(N3CCN(C)CC3)CC2)c(C)cc1Nc1ncc(Br)c(Nc2cc(Cl)ccc2NS(C)(=O)=O)n1 [Example 86, N-(2-((5-bromo-2-((2-methoxy-5-methyl-6-(4-(4-methylpiperazin-1-yl)piperidin-1-yl)pyridin-3-yl)amino)pyrimidin-4-yl)amino)-4-chlorophenyl)methanesulfonamide]	1 to 25 nM	2000 to 10000 nM	500 to 2000 nM	25 to 100 nM	1 to 25 nM	25 to 100 nM
CN1CCN(C2CCN(c3ccc(Nc4ncc(Br)c(Nc5cc(Cl)ccc5NS(C)(=O)=O)n4)cc3F)CC2)CC1 [Example 87, N-(2-((5-bromo-2-((3-fluoro-4-(4-(4-methylpiperazin-1-yl)piperidin-1-yl)phenyl)amino)pyrimidin-4-yl)amino)-4-chlorophenyl)methanesulfonamide]	25 to 100 nM	100 to 500 nM	100 to 500 nM	25 to 100 nM	25 to 100 nM	25 to 100 nM
COc1cc(N2CCC(N3CCN(C)CC3)CC2)c(Cl)cc1Nc1ncc(Br)c(Nc2cc(Cl)ccc2NS(C)(=O)=O)n1 [Example 88, N-(2-((5-bromo-2-((5-chloro-2-methoxy-4-(4-(4-methylpiperazin-1-yl)piperidin-1-yl)phenyl)amino)pyrimidin-4-yl)amino)-4-chlorophenyl)methanesulfonamide]	1 to 25 nM	500 to 2000 nM	100 to 500 nM	1 to 25 nM	1 to 25 nM	1 to 25 nM
COc1cc(N2CCC(N3CCCN(C)CC3)CC2)c(C)cc1Nc1ncc(Br)c(Nc2cc(Cl)ccc2NS(C)(=O)=O)n1 [Example 89]	25 to 100 nM	500 to 2000 nM	100 to 500 nM	1 to 25 nM	1 to 25 nM	1 to 25 nM
COc1cc(N2CCC(N3CCCC(N(C)C)C3)CC2)c(C)cc1Nc1ncc(Br)c(Nc2cc(Cl)ccc2NS(C)(=O)=O)n1 (stereo not drawn) [Example 90, N-(2-((5-Bromo-2-((4-(3-(dimethylamino)-[1,4′-bipiperidin]-1′-yl)-2-methoxy-5-methylphenyl)amino)pyrimidin-4-yl)amino)-4-chlorophenyl)methanesulfonamide]	1 to 25 nM	500 to 2000 nM	100 to 500 nM	1 to 25 nM	1 to 25 nM	1 to 25 nM
COc1cc(N2CCC(N3CCNCC3)CC2)c(C)cc1Nc1ncc(Br)c(Nc2cc(Cl)ccc2NS(C)(=O)=O)n1 [Example 94, N-(2-((5-bromo-2-((2-methoxy-5-methyl-4-(4-(piperazin-1-yl)piperidin-1-yl)phenyl)amino)pyrimidin-4-yl)amino)-4-chlorophenyl)methanesulfonamide]	1 to 25 nM	500 to 2000 nM	25 to 100 nM	1 to 25 nM	1 to 25 nM	1 to 25 nM
COc1cc(N2CCC(N3CCCN(C)CC3)CC2)c(Cl)cc1Nc1ncc(Br)c(Nc2cc(Cl)ccc2NS(C)(=O)=O)n1 [Example 95, N-(2-((5-bromo-2-((5-chloro-2-methoxy-4-(4-(4-methyl-1,4-diazepan-1-yl)piperidin-1-yl)phenyl)amino)pyrimidin-4-yl)amino)-4-chlorophenyl)methanesulfonamide]	1 to 25 nM	500 to 2000 nM	100 to 500 nM	1 to 25 nM	1 to 25 nM	1 to 25 nM
Cc1cc(Nc2ncc(Br)c(Nc3cc(Cl)ccc3NS(C)(=O)=O)n2)c(Cl)cc1N1CCC(N2CCCN(C)CC2)CC1 [Example 97, N-(2-((5-bromo-2-((2-chloro-5-methyl-4-(4-(4-methyl-1,4-diazepan-1-yl)piperidin-1-yl)phenyl)amino)pyrimidin-4-yl)amino)-4-chlorophenyl)methanesulfonamide]	25 to 100 nM	500 to 2000 nM	500 to 2000 nM	25 to 100 nM	1 to 25 nM	25 to 100 nM
Cc1cc(Nc2ncc(Br)c(Nc3cc(Cl)ccc3NS(C)(=O)=O)n2)c(Cl)cc1N1CCC(N2CCCC(N(C)C)C2)CC1 (stereo not drawn) [Example 98, N-(2-((5-bromo-2-((2-chloro-4-(3-(dimethylamino)-[1,4′-bipiperidin]-1′-yl)-5-methylphenyl)amino)pyrimidin-4-yl)amino)-4-chlorophenyl)methanesulfonamide]	25 to 100 nM	500 to 2000 nM	100 to 500 nM	25 to 100 nM	25 to 100 nM	100 to 500 nM
COc1cc(N2CCC(N3CCN(C)CC3)CC2)c(C)cc1Nc1ncc(Cl)c(Nc2ccc3ncccc3c2NS(C)(=O)=O)n1 [Example 115, N-(6-((5-chloro-2-((2-methoxy-5-methyl-4-(4-(4-methylpiperazin-1-yl)piperidin-1-yl)phenyl)amino)pyrimidin-4-yl)amino)quinolin-5-yl)methanesulfonamide]	100 to 500 nM	2000 to 10000 nM	100 to 500 nM	1 to 25 nM	1 to 25 nM	25 to 100 nM
COc1cc(N2CCC(N3CCN(C)CC3)CC2)c(C)cc1Nc1ncc(Cl)c(Nc2ccc3nccnc3c2NS(C)(=O)=O)n1 [Example 131, N-(6-((5-chloro-2-((2-methoxy-5-methyl-4-(4-(4-methylpiperazin-1-yl)piperidin-1-yl)phenyl)amino)pyrimidin-4-yl)amino)quinoxalin-5-yl)methanesulfonamide]	1 to 25 nM	500 to 2000 nM	100 to 500 nM	25 to 100 nM	1 to 25 nM	25 to 100 nM
COc1nc(N2CCC(N3CCN(C)CC3)CC2)c(C)cc1Nc1ncc(Cl)c(Nc2ccc3nccnc3c2NS(C)(=O)=O)n1 [Example 134, N-(6-((5-chloro-2-((2-methoxy-5-methyl-6-(4-(4-methylpiperazin-1-yl)piperidin-1-yl)pyridin-3-yl)amino)pyrimidin-4-yl)amino)quinoxalin-5-yl)methanesulfonamide]	100 to 500 nM	100 to 500 nM	100 to 500 nM	25 to 100 nM	25 to 100 nM	100 to 500 nM
COc1cc(N2CCC(N3CCN(C)CC3)CC2)c(C)cc1Nc1ncc(Cl)c(Nc2cc3c(cc2NS(C)(=O)=O)CCO3)n1 [Example 140, N-(6-((5-chloro-2-((2-methoxy-5-methyl-4-(4-(4-methylpiperazin-1-yl)piperidin-1-yl)phenyl)amino)pyrimidin-4-yl)amino)-2,3-dihydrobenzofuran-5-yl)methanesulfonamide]	1 to 25 nM	500 to 2000 nM	100 to 500 nM	25 to 100 nM	1 to 25 nM	25 to 100 nM

— patent US20240228458A1, “PYRIMIDINE DERIVATIVE HAVING PROTEIN KINASE INHIBITORY ACTIVITY, AND THERAPEUTIC PHARMACEUTICAL COMPOSITION COMPRISING SAME” (THERAPEX CO., LTD., priority 2021, published 2024)
